# Measured values: the supplement of paper PMC10307832
# Key:
# Test in all cases: relative viability (nuclei count vs DMSO), 5 days (fraction); higher = more cells survive
# QS11 + Bortezomib = compound: C1CC2=C(C1)C=C(C=C2)OC3=NC(=C4C(=N3)N(C=N4)CC5=CC=C(C=C5)C6=CC=CC=C6)N[C@@H](CC7=CC=CC=C7)CO [QS11] + CC(C)C[C@H](NC(=O)[C@H](Cc1ccccc1)NC(=O)c1cnccn1)B(O)O [Bortezomib] (partner 0.002 µM)
# Summary of the method: (§1)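 Values are medians from duplicate plates. Each reflects relative viability, defined as the nuclei count of treated wells over that of vehicle wells. Lung cancer cell lines in 1536-well plates were pin-tool dosed one day after seeding with one drug alone or with a fixed anchor-drug dose plus five library-drug doses (not always all listed) in √10 steps, then fixed, stained and imaged at 4× after 5 days.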
# QS11 + Foretinib = compound: C1CC2=C(C1)C=C(C=C2)OC3=NC(=C4C(=N3)N(C=N4)CC5=CC=C(C=C5)C6=CC=CC=C6)N[C@@H](CC7=CC=CC=C7)CO [QS11] + COc1cc2c(Oc3ccc(NC(=O)C4(C(=O)Nc5ccc(F)cc5)CC4)cc3F)ccnc2cc1OCCCN1CCOCC1 [Foretinib] (partner 0.25 µM)
# Summary of the method: as §1
# AZ628 + Tozasertib = compound: CC1=C(C=C(C=C1)NC(=O)C2=CC(=CC=C2)C(C)(C)C#N)NC3=CC4=C(C=C3)N=CN(C4=O)C [AZ628] + Cc1cc(Nc2cc(N3CCN(C)CC3)nc(Sc3ccc(NC(=O)C4CC4)cc3)n2)n[nH]1 [Tozasertib] (partner 0.1 µM)
# Summary of the method: as §1
# [1] = compound: C[As](C)SC[C@H](NC(=O)CC[C@H](N)C(=O)O)C(=O)NCC(=O)O [Darinaparsin] + O=C(CCCCCCC(=O)Nc1ccccc1)NO [Vorinostat] (partner 1 µM)
# Summary of the method: as §1
Cell Line,relative viability (QS11 + Bortezomib; first compound 0.08 µM),relative viability (QS11 + Bortezomib; first compound 0.253 µM),relative viability (QS11 + Bortezomib; first compound 0.8 µM),relative viability (QS11 + Bortezomib; first compound 2.53 µM),relative viability (QS11 + Bortezomib; first compound 8 µM),relative viability (QS11 + Foretinib; first compound 0.08 µM),relative viability (QS11 + Foretinib; first compound 0.253 µM),relative viability (QS11 + Foretinib; first compound 0.8 µM),relative viability (QS11 + Foretinib; first compound 2.53 µM),relative viability (QS11 + Foretinib; first compound 8 µM),relative viability (AZ628 + Tozasertib; first compound 0.08 µM),relative viability (AZ628 + Tozasertib; first compound 0.253 µM),relative viability (AZ628 + Tozasertib; first compound 0.8 µM),relative viability (AZ628 + Tozasertib; first compound 2.53 µM),relative viability (AZ628 + Tozasertib; first compound 8 µM),relative viability ([1]; first compound 0.08 µM),relative viability ([1]; first compound 0.8 µM),relative viability ([1]; first compound 2.53 µM),relative viability ([1]; first compound 8 µM)
NCI-H23,1.03,0.926,0.978,0.722,1,1.01,1.1,0.753,0.863,0.961,0.286,0.263,0.323,0.26,0.213,0.62,0.485,0.663,0.716
NCI-H1355,1.2,1.19,0.862,1.21,1.13,1.01,0.911,0.775,0.931,1.05,0.548,0.512,0.628,0.495,0.269,0.703,0.617,0.488,0.683
NCI-H1734,0.932,0.913,0.848,0.822,0.738,0.842,0.932,0.91,0.772,0.713,0.258,0.267,0.196,0.243,0.197,0.934,0.752,0.773,0.746
EPLC-272H,0.954,0.947,0.81,0.946,0.798,,0.817,0.64,0.677,0.692,0.28,0.179,0.289,0.297,0.248,0.324,0.42,0.422,0.4
LXF-289,1,0.996,0.791,0.819,0.614,0.994,1.05,0.704,0.875,0.834,0.199,0.213,0.195,0.174,0.155,0.775,0.788,0.828,0.779
NCI-H520,,0.593,0.541,0.479,0.471,0.703,1.08,1.12,0.792,0.867,0.407,0.453,0.365,0.422,0.412,0.737,0.723,0.735,0.785
H3255,0.813,0.782,,0.761,0.746,0.787,0.864,,0.927,0.93,0.863,0.613,0.915,0.62,0.487,0.746,0.788,0.745,0.895
NCI-H460,1.04,1.13,0.819,0.973,0.345,1.07,0.939,0.731,1.05,0.626,0.449,0.186,0.146,0.382,0.053,1.35,0.831,0.569,1
PC-14,0.7,0.887,0.979,0.741,0.731,1.11,0.95,0.777,0.889,1.06,0.502,0.526,0.612,0.564,0.44,0.691,0.753,0.545,0.572
HCC-15,1.06,1.16,,1.03,0.982,0.999,1.12,0.764,1.01,0.899,0.389,0.491,0.273,0.337,0.135,0.911,0.839,0.851,0.901
NCI-H1437,0.569,0.325,0.459,0.402,0.336,1.31,1.23,0.973,1.17,1.12,0.402,0.408,0.428,0.418,0.375,0.907,0.854,0.911,1.06
COR-L23,1.08,1.13,0.86,0.942,0.765,0.976,1.03,0.716,0.802,0.735,0.186,0.15,0.157,0.146,0.12,0.453,0.523,0.425,0.433
NCI-H1975,0.333,0.403,0.541,0.364,0.3,1.02,1.02,1.04,1.32,1.35,0.794,0.562,0.449,0.453,0.163,0.875,0.728,0.741,0.854
NCI-H1666,0.83,0.722,0.74,0.719,0.564,0.908,1.05,0.653,0.85,0.582,0.605,0.567,0.565,0.551,0.479,1.2,0.899,1.18,1.08
A-427,0.852,0.96,,0.999,0.858,1.13,1.15,,1.22,1.17,0.155,0.138,0.146,0.142,0.146,0.898,0.811,0.951,0.893
EKVX,0.941,1.09,,1.07,1.1,0.732,0.764,,0.848,1.23,0.396,0.381,0.392,0.467,0.233,0.787,0.653,0.764,0.737
NCI-H650,0.681,0.625,0.815,0.819,0.888,1,1.11,0.994,0.924,1.02,0.855,0.713,0.722,0.789,0.446,0.335,0.408,0.427,0.423

Cell Line,relative viability (QS11 + Bortezomib; first compound 0.08 µM),relative viability (QS11 + Bortezomib; first compound 0.253 µM),relative viability (QS11 + Bortezomib; first compound 0.8 µM),relative viability (QS11 + Bortezomib; first compound 2.53 µM),relative viability (QS11 + Bortezomib; first compound 8 µM),relative viability (QS11 + Foretinib; first compound 0.08 µM),relative viability (QS11 + Foretinib; first compound 0.253 µM),relative viability (QS11 + Foretinib; first compound 0.8 µM),relative viability (QS11 + Foretinib; first compound 2.53 µM),relative viability (QS11 + Foretinib; first compound 8 µM),relative viability (AZ628 + Tozasertib; first compound 0.08 µM),relative viability (AZ628 + Tozasertib; first compound 0.253 µM),relative viability (AZ628 + Tozasertib; first compound 0.8 µM),relative viability (AZ628 + Tozasertib; first compound 2.53 µM),relative viability (AZ628 + Tozasertib; first compound 8 µM),relative viability ([1]; first compound 0.08 µM),relative viability ([1]; first compound 0.8 µM),relative viability ([1]; first compound 2.53 µM),relative viability ([1]; first compound 8 µM)
NCI-H2087,0.766,0.776,0.677,0.636,0.48,1.07,1.15,,1.15,1.06,0.251,0.174,0.19,0.204,0.132,0.932,0.839,0.892,1.14
NCI-H1755,0.953,0.893,0.605,0.76,0.61,0.962,0.841,0.566,0.732,0.683,0.595,0.52,0.532,0.525,0.493,0.791,0.606,0.817,1.05
COR-L 105,0.78,0.814,0.772,0.717,0.519,1.08,1.25,0.924,0.991,0.992,0.387,0.374,0.359,0.315,0.376,0.908,0.656,0.822,0.932
NCI-H838,0.942,0.641,0.684,0.851,0.923,0.993,0.953,0.688,0.898,0.85,0.27,0.302,0.281,0.288,0.212,0.704,0.738,0.728,0.76
NCI-H1993,0.959,1,1.04,1.35,0.998,0.737,0.636,0.696,0.787,0.628,0.613,0.617,0.591,0.602,0.555,0.765,0.855,0.697,0.827
NCI-H1650,0.183,0.215,0.18,0.197,0.186,1,1.25,0.799,1.14,1.19,0.469,0.494,0.337,0.368,0.206,0.64,0.499,0.628,0.683
HARA,1.25,1.19,,1.05,1.24,0.841,0.933,,0.944,1.2,0.144,0.122,0.111,0.0923,0.0666,0.582,0.532,0.575,0.621
PC-3 [JPC-3],0.827,0.88,0.767,0.828,0.678,0.972,1.07,0.991,1.03,0.982,0.909,0.909,0.926,0.91,0.798,0.903,0.739,0.945,0.872
ABC-1,0.309,0.399,0.319,0.324,0.278,0.912,1.06,1.06,1.08,1.32,0.226,0.166,0.215,0.201,0.175,1.59,1.09,1.05,1.26
NCI-H441,0.437,0.536,0.475,0.444,0.299,1.01,1.19,0.97,0.775,0.746,0.647,0.613,0.676,0.556,0.445,1.15,0.751,0.847,0.884
NCI-H2126,1.1,1.07,0.882,1.22,0.904,1.18,1.22,1.07,1.1,1.04,0.899,0.815,0.951,0.859,0.866,0.77,0.687,0.743,0.708
BEN,0.635,1.01,1.07,0.916,1.07,0.47,0.616,0.814,0.691,0.701,0.511,0.498,0.444,0.471,0.383,0.572,0.602,0.688,0.65
HCC-366,1.28,0.688,,0.808,0.318,0.985,0.962,,0.895,0.147,0.0912,0.0518,0.0747,0.0418,0.0451,0.454,,0.339,0.436
LCLC-103H,1.04,1.1,0.811,1.07,0.891,0.526,0.883,0.672,0.7,0.784,0.525,0.52,0.473,0.523,0.384,0.796,0.713,0.732,0.885
NCI-H596,,0.807,1.15,0.869,1.06,0.979,0.743,0.924,0.841,0.97,0.768,0.827,0.956,0.886,0.848,0.543,0.632,0.576,0.543
HCC-827,1.06,1.09,0.937,0.962,1.04,1.05,1.05,0.8,1.02,0.812,0.43,0.468,0.374,0.494,0.344,0.874,0.818,0.775,0.963
NCI-H727,0.804,0.72,0.893,0.739,0.35,1.2,0.888,0.829,1.06,0.869,0.551,0.316,0.32,0.404,0.274,1.24,1.14,1.16,1.36
